Measurements: patent US11918577B2, “Dipeptidyl peptidase-4 inhibitors for topical eye treatment of retinal neurodegenerative diseases” (FUNDACIÓ HOSPITAL UNIVERSITARI VALL D'HEBRON - INSTITUT DE …, priority 2016, dated 2024)

How the values were obtained:
[1] = system: C. Elegans; conditions: high glucose levels, no GLP-1R expression; cited from earlier work
[2] = system: db/db mice; conditions: orally administered, diabetic mice (db/db); cited from earlier work
[3] = system: db/db mouse; experiment: Retinal glutamate quantification (UPLC) in db/db mice, eye drops; assay type: in vivo; conditions: p<0.05
Source text: (§1) It has been reported that db/db mice reproduce the features of the neurodegenerative process that occurs in the human diabetic eye. Therefore, it is an appropriate model for testing neuroprotective drugs (according to Bogdanov et al., “The db/db mouse: a useful model for the study of diabetic retinal neurodegeneration”, PLoS One—2014, vol. no. 9(5):e97302). A total of 20 male db/db (BKS.Cg-+Lepr db/+Lepr db/OlaHsd) mice aged 10 weeks were purchased from Harlan Laboratories, Inc. In addition, 10 non-diabetic (db/+) mice matched by age were used as control group.
(§2) This study was approved by the Animal Care and Use Committee of VHIR (Vali d′Hebron Research Institute). All the experiments were performed in accordance with the tenets of the European Community (86/609/CEE) and ARVO (Association for Research in Vision and Ophthalmology).
Quantification of glutamate was performed by reverse phase ultra-performance liquid chromatography (UPLC) (Acquity-UPLC, Waters) as aminoquinoline derivatives (AccQ-Tag chemistry, MassTrak AAA method and instruments, Waters, Milford, MA).
(§3) The design and methodology were the same than used in Example 2.

[4] = system: db/db mouse; experiment: Retinal apoptosis (TUNEL) in db/db mice, eye drops; assay type: in vivo; conditions: eye drops for two weeks, ONL, INL, GCL, vs vehicle
Source text: as §1, §2
The TUNEL (Terminal Transferase dUTP Nick-End Labeling) staining was carried out using the DeadEnd Fluorometric TUNEL System kit (PROMEGA, Madison, WI, USA). Cryosections of retina were permeabilised by incubation for 2 min on ice with 0.1% Triton X-100 in 0.1% sodium citrate, freshly prepared. The secondary antibody was Alexa 488 goat-anti-rabbit (Invitrogen, San Diego CA, USA). For evaluation by Laser Scanning Confocal microscopy the excitation wavelength was 488 nm and detection in the range of 515-565 nm (green) was used. […]

[5] = system: db/db mouse; experiment: Blood-retinal barrier: albumin leakage (Evans blue, albumin immunofluorescence) in db/db mice, eye drops; assay type: in vivo; conditions: for albumin leakage (extravasation of albumin): vs vehicle
Source text: as §1, §2
(§4) In the lower panel FIG. 6(B) the quantification of albumin immunofluorescence of digital images with Fluoview FV 1000 Laser Scanning Microscope is shown. Immunohistochemistry images of Fluoview FV 1000 Laser Scanning Microscope from which quantification of albumina (in red) was done are not shown. The three type of samples tested were: D-Sham, D-SAXAGLIPTIN and C (db/+). Results are the mean±SD. *p <0.05 between db/db treated with vehicle (D-Sham) and the other groups.
as §3
as §4, with “9(B)” for “6(B)”, “D-Sitagliptin” for “D-SAXAGLIPTIN”, “*p<0.05” for “*p <0.05”

[6] = system: db/db mouse; experiment: Glial activation (GFAP staining score) in retina of db/db mice, eye drops; assay type: in vivo; conditions: for GFAP score of the treated mice / reactive gliosis: eye drops for two weeks; for GFAP score of the treated mice: all cases, scale 1-5; for reactive gliosis: vs vehicle
Source text: as §1, §2
Glial activation was evaluated by Laser Scanning Confocal microscopy using specific antibodies against GFAP (Glial fibrillar acidic protein). Sections were fixed in acid methanol (−20° C.) for 2 min, followed by three washes with PBS, 5 min each. Sections were permeabilized with TBS-Triton X-100 0.025% and were incubated in blocker (1% BSA, and 10% goat serum in PBS) for 2 hours at room temperature. Sections were then incubated with rabbit anti-GFAP (Abcam Ltd, Cambridge, U.K.) (1:500 dilution prepared in blocking solution) overnight at 4° C. in a humid atmosphere. After three washes in PBS, 5 min each, the sections were incubated with secondary antibody Alexa 488 goat-anti-rabbit (Invitrogen) (1:200 dilution prepared in blocking solution). The sections were washed three times in PBS, counterstained with Hoestch and mounted with Mounting Medium Fluorescence (Prolong, Invitrogen) and mounted with a coverslip. Comparative digital images from samples were recorded with a Fluoview FV 1000 Laser Scanning Confocal Microscope Olympus using identical brightness and contrast settings.
To evaluate the degree of glial activation it was used a scoring system based on the extent of GFAP staining previously described (Anderson et al., “Glial and endothelial blood-retinal barrier responses to amyloid-beta in the neural retina of the rat”, Clin Ophthalmol—2008, vol. no. 2, pp.:801-816). This scoring system was as follows: Müller cell endfeet region/GCL only (score 1); Müller cell endfeet region/GCL plus a few proximal processes (score 2); Müller cell endfeet plus many processes, but not extending to ONL (score 3); Müller cell endfeet plus processes throughout with some in the ONL (score 4); Müller cell endfeet plus lots of dark processes from GCL to outer margin of ONL (score 5).
The scoring system was as follows: Müller cell endfeet region/GCL only (score 1); Müller cell endfeet region/GCL plus a few proximal processes (score 2); Müller cell endfeet plus many processes, but not extending to ONL (score 3); Müller cell endfeet plus processes throughout with some in the ONL (score 4); Müller cell endfeet plus lots of dark processes from GCL to outer margin of ONL (score 5). n=10 mice per group (5 retinal sections per mice).
as §3

[7] = system: GLAST (glutamate-aspartate transporter); experiment: GLAST immunofluorescence in retina of db/db mice, eye drops; assay type: in vivo, mouse
Source text: as §1, §2
GLAST (glutamate-aspartate transporter), the main glutamate transporter, was evaluated by fluorescence microscopy using specific antibodies. GLAST was evaluated by fluorescence microscopy using specific antibodies [rabbit anti-GLAST (EAAT1) (1:100, Abcam ab416, Cambridge, UK).
as §3

[8] = system: GLP-1 and its main downstream messenger cAMP; experiment: Intraretinal content of GLP-1 and cAMP in db/db mice, eye drops (data not shown); assay type: in vivo, mouse
Source text: Without being bound to any theory, inventors consider that, in fact, the DPP-4 inhibitors themselves activate unrelated downstream GLP-1R pathways that might be involved in neuroprotection.

[9] = system: db/db mouse; experiment: Full field electroretinography (ERG) in db/db mice, eye drops; assay type: in vivo
Description: Full field electroretinography (ERG) recordings were measured using the Ganzfeld ERG platform (Phoenix Research Laboratories, Pleasanton, CA) following ISCEV (International Society for Clinical Electrophysiology of Vision) recommendations (according to Marmor et al., “Standard for clinical electroretinography.”, International Society for Clinical Electrophysiology of Vision (2004), Doc Ophthalmol—2004; vol. 108, pp.:107-114).

[10] = administered in the form of eye drops; cited from earlier work

SMILES	retinal glutamate concentration vs diabetic mice treated with vehicle [3]	apoptosis (TUNEL positive cells) in retinal layers [4]	albumin leakage (extravasation of albumin) [5]	GFAP score of the treated mice [6]	reactive gliosis [6]	downregulation of GLAST induced by diabetes [7]	intraretinal content of GLP-1 [8]	intraretinal content of cAMP [8]	also measured
CC#CCn1c(N2CCC[C@@H](N)C2)nc2c1c(=O)n(Cc1nc(C)c3ccccc3n1)c(=O)n2C [Linagliptin, 8-[(3R)-3-aminopiperidin-1-yl]-7-(but-2-yn-1-yl)-3-methyl-1-[(4-methylquinazolin-2-yl)methyl]-3,7-dihydro-1H-purine-2,6-dione]									neuroprotective effect [1]: neuroprotective effect
N[C@@H](CC(=O)N1CCc2c(nc(C(F)(F)F)nc2C(F)(F)F)C1)CN1CC(F)(F)CCC1=O [Gemigliptin, (3S)-3-amino-4-(5,5-difluoro-2-oxopiperidino)-1-[2,4-di(trifluoromethyl)-5,6,7,8-tetrahydropyrido[3,4-d]pyrimidin-7-yl]butan-1-one]									retinal pericyte apoptosis [2]: ameliorate; vascular leakage [2]: ameliorate
N#C[C@@H]1C[C@@H]2C[C@@H]2N1C(=O)[C@@H](N)C12CC3CC(CC(O)(C3)C1)C2 [Saxagliptin, (1S,3S,5S)-2-[(2S)-2-amino-2-(3-hydroxy-1-adamantyl)acetyl]-2-azabicyclo[3.1.0]hexane-3-carbonitrile]	significantly lower	significant prevention of apoptosis in all retinal layers	prevented albumin leakage	< 3	significant decrease	prevented	significant increase	significant increase	% positive GFAP labeling, score 1 ([6]; eye drops twice daily for 14 days, score 1: Müller cell endfeet region/GCL only): 95.00%; % positive GFAP labeling, score 2 ([6]; eye drops twice daily for 14 days, score 2: endfeet region/GCL plus a few proximal processes): 5.00%; % positive GFAP labeling, score 3 ([6]; eye drops twice daily for 14 days, score 3: endfeet plus many processes, not extending to ONL): 0.00%; % positive GFAP labeling, score 4 ([6]; eye drops twice daily for 14 days, score 4: endfeet plus processes throughout with some in the ONL): 0.00%; % positive GFAP labeling, score 5 ([6]; eye drops twice daily for 14 days, score 5: lots of dark processes from GCL to outer margin of ONL): 0.00%
N[C@@H](CC(=O)N1CCn2c(nnc2C(F)(F)F)C1)Cc1cc(F)c(F)cc1F [Sitagliptin, (R)-4-oxo-4-[3-(trifluoromethyl)-5,6-dihydro[1,2,4]triazolo[4,3-a]pyrazin-7(8H)-yl]-1-(2,4,5-trifluorophenyl)butan-2-amine]	prevented glutamate accumulation	significant prevention of apoptosis in all retinal layers	prevented albumin leakage	≤ 3	significant decrease	abrogating the downregulation of GLAST	significant increase	significant increase	functional abnormalities measured by ERG [9]: prevented functional abnormalities; sealing function of the BRB [5]: preserved the sealing function of the BRB; GFAP score distribution (Table 2), score 1 ([6]; sitagliptin eye drops for two weeks, score 1): 85.00; GFAP score distribution (Table 2), score 2 ([6]; sitagliptin eye drops for two weeks, score 2): 10.00; GFAP score distribution (Table 2), score 3 ([6]; sitagliptin eye drops for two weeks, score 3): 5.00; GFAP score distribution (Table 2), score 4 ([6]; sitagliptin eye drops for two weeks, score 4): 0.00; GFAP score distribution (Table 2), score 5 ([6]; sitagliptin eye drops for two weeks, score 5): 0.00
Cc1cc(-c2cc(O)ccc2Cl)cc2nnc(Nc3ccc(OCCN4CCCC4)cc3)nc12 [TG100572, 4-chloro-3-(5-methyl-3-{[4-(2-pyrrolidin-1-ylethoxy)phenyl]amino}-1,2,4-benzotriazin-7-yl)phenol]									reaching the target in the retina [10]: able to reach the target in the retina
